Measurements taken from patent US20250064809A1, “Inhibitors of Mutant RET Kinases for use in Treating Cancer” (Stemline Therapeutics, Inc., priority 2021, published 2025).

What was measured:
Ba/F3 KIF5B-RET-G810C = experiment: In vitro cell viability assay (CellTiter-Glo); assay type: cell-based; conditions: Mus musculus, BaF3, 72 h, 3 days
Ba/F3 KIF5B-RET-G810S = experiment: In vitro cell viability assay (CellTiter-Glo); assay type: cell-based; conditions: Mus musculus, BaF3, 72 h, 3 days
[1] = system: Ba/F3 cells expressing KIF5B-RET with a G810 RET mutant domain; experiment: In vitro cell viability assay, mutant RET kinase cell lines compared to wild type; assay type: cell-based, mouse; conditions: Ba/F3 KIF5B-RET G810R, G810C, G810S versus wild type
Ba/F3 KIF5B-RET = experiment: In vitro cell viability assay (CellTiter-Glo); assay type: cell-based; conditions: Mus musculus, BaF3, 72 h; Ba/F3 KIF5B-RET (wild type RET), 3 days
Ba/F3 KIF5B-RET-G810R = experiment: In vitro cell viability assay (CellTiter-Glo); assay type: cell-based; conditions: Mus musculus, BaF3, 72 h, 3 days

Structure (SMILES) | IC50 (Ba/F3 KIF5B-RET-G810C) | IC50 (Ba/F3 KIF5B-RET-G810S) | increase in IC50 values against mutant RET kinase cell lines as compared to wild type RET kinase cell lines [1] | IC50 (Ba/F3 KIF5B-RET) | IC50 (Ba/F3 KIF5B-RET-G810R)
COc1ccc(CN2C3CC2CN(c2ccc(-c4cc(OCC(C)(C)O)cn5ncc(C#N)c45)cn2)C3)cn1 [Selpercatinib, selpercatinib] | 1080 nM | 204 nM | 8-44 fold | 24.4 nM | 986 nM
CO[C@]1(C(=O)N[C@@H](C)c2ccc(-n3cc(F)cn3)nc2)CC[C@H](c2nc(C)cc(Nc3cc(C)[nH]n3)n2)CC1 [Pralsetinib, pralsetinib] | 551 nM | 90.5 nM | 3-44 fold | 29.6 nM | 1300 nM
